Test results published in the supplement of paper PMC10307832.

Assays:
Assay in all cases: relative viability (nuclei count vs DMSO), 5 days (fraction); higher = more cells survive
HCC-827 = tested on: HCC-827
How it was run: (§1)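 After 5 days of treatment, lung cancer cells in 1536-well plates were fixed and stained in a single step (final 0.05% Triton X-100, 1% formaldehyde, 1 ug/ml Hoechst) and their nuclei counted on 4× images. Treatment had been applied by pin tool the day after seeding as one drug alone or as a fixed anchor-drug dose with five library-drug doses (not always all listed) in √10 steps. Relative viability is the nuclei count of treated wells divided by that of vehicle wells, and values are medians of duplicate plates.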

NCI-H2170 = tested on: NCI-H2170
How it was run: as §1

NCI-H2085 = tested on: NCI-H2085
How it was run: as §1

LU99A = tested on: LU99A
How it was run: as §1

NCI-H1975 = tested on: NCI-H1975
How it was run: as §1

BEN = tested on: BEN
How it was run: as §1

NCI-H647 = tested on: NCI-H647
How it was run: as §1

H3255 = tested on: H3255
How it was run: as §1

NCI-H1437 = tested on: NCI-H1437
How it was run: as §1

COR-L 105 = tested on: COR-L 105
How it was run: as §1

EPLC-272H = tested on: EPLC-272H
How it was run: as §1

NCI-H2342 = tested on: NCI-H2342
How it was run: as §1

LOU-NH91 = tested on: LOU-NH91
How it was run: as §1

PC-3 [JPC-3] = tested on: PC-3 [JPC-3]
How it was run: as §1

LCLC-97TM1 = tested on: LCLC-97TM1
How it was run: as §1

NCI-H2087 = tested on: NCI-H2087
How it was run: as §1

EKVX = tested on: EKVX
How it was run: as §1

NCI-H1666 = tested on: NCI-H1666
How it was run: as §1

201T = tested on: 201T
How it was run: as §1

NCI-H650 = tested on: NCI-H650
How it was run: as §1

SW 1573 = tested on: SW 1573
How it was run: as §1

Structure (SMILES): Cc1sc2c(c1C)C(c1ccc(Cl)cc1)=N[C@@H](CC(=O)OC(C)(C)C)c1nnc(C)n1-2 [JQ1] + Cc1nc(Nc2ncc(C(=O)Nc3c(C)cccc3Cl)s2)cc(N2CCN(CCO)CC2)n1 [Dasatinib] (partner 0.075 µM)
- relative viability (HCC-827; first compound 0.04 µM): 0.371
- relative viability (HCC-827; first compound 0.4 µM): 0.227
- relative viability (HCC-827; first compound 1.265 µM): 0.438
- relative viability (HCC-827; first compound 4 µM): 0.421
- relative viability (NCI-H2170; first compound 0.04 µM): 0.57
- relative viability (NCI-H2170; first compound 0.1265 µM): 0.47
- relative viability (NCI-H2170; first compound 0.4 µM): 0.392
- relative viability (NCI-H2170; first compound 1.265 µM): 0.334
- relative viability (NCI-H2170; first compound 4 µM): 0.305
- relative viability (NCI-H2085; first compound 0.04 µM): 0.257
- relative viability (NCI-H2085; first compound 0.1265 µM): 0.275
- relative viability (NCI-H2085; first compound 0.4 µM): 0.189
- relative viability (NCI-H2085; first compound 1.265 µM): 0.223
- relative viability (NCI-H2085; first compound 4 µM): 0.176
- relative viability (LU99A; first compound 0.04 µM): 0.551
- relative viability (LU99A; first compound 0.1265 µM): 0.378
- relative viability (LU99A; first compound 0.4 µM): 0.603
- relative viability (LU99A; first compound 1.265 µM): 0.207
- relative viability (LU99A; first compound 4 µM): 0.206
- relative viability (NCI-H1975; first compound 0.04 µM): 0.414
- relative viability (NCI-H1975; first compound 0.1265 µM): 0.316
- relative viability (NCI-H1975; first compound 0.4 µM): 0.305
- relative viability (NCI-H1975; first compound 1.265 µM): 0.227
- relative viability (NCI-H1975; first compound 4 µM): 0.241
- relative viability (BEN; first compound 0.04 µM): 0.302
- relative viability (BEN; first compound 0.1265 µM): 0.307
- relative viability (BEN; first compound 0.4 µM): 0.309
- relative viability (BEN; first compound 1.265 µM): 0.274
- relative viability (BEN; first compound 4 µM): 0.217
- relative viability (NCI-H647; first compound 0.04 µM): 0.147
- relative viability (NCI-H647; first compound 0.1265 µM): 0.0904
- relative viability (NCI-H647; first compound 0.4 µM): 0.124
- relative viability (NCI-H647; first compound 1.265 µM): 0.045
- relative viability (NCI-H647; first compound 4 µM): 0.0403
- relative viability (H3255; first compound 0.04 µM): 0.438
- relative viability (H3255; first compound 0.1265 µM): 0.319
- relative viability (H3255; first compound 0.4 µM): 0.504
- relative viability (H3255; first compound 1.265 µM): 0.317
- relative viability (H3255; first compound 4 µM): 0.269
- relative viability (NCI-H1437; first compound 0.04 µM): 0.394
- relative viability (NCI-H1437; first compound 0.1265 µM): 0.365
- relative viability (NCI-H1437; first compound 0.4 µM): 0.263
- relative viability (NCI-H1437; first compound 1.265 µM): 0.217
- relative viability (NCI-H1437; first compound 4 µM): 0.244
- relative viability (COR-L 105; first compound 0.04 µM): 0.297
- relative viability (COR-L 105; first compound 0.1265 µM): 0.186
- relative viability (COR-L 105; first compound 0.4 µM): 0.156
- relative viability (COR-L 105; first compound 1.265 µM): 0.119
- relative viability (COR-L 105; first compound 4 µM): 0.132
- relative viability (EPLC-272H; first compound 0.04 µM): 0.352
- relative viability (EPLC-272H; first compound 0.1265 µM): 0.382
- relative viability (EPLC-272H; first compound 0.4 µM): 0.358
- relative viability (EPLC-272H; first compound 1.265 µM): 0.175
- relative viability (EPLC-272H; first compound 4 µM): 0.204
- relative viability (NCI-H2342; first compound 0.04 µM): 0.315
- relative viability (NCI-H2342; first compound 0.1265 µM): 0.304
- relative viability (NCI-H2342; first compound 0.4 µM): 0.328
- relative viability (NCI-H2342; first compound 1.265 µM): 0.286
- relative viability (NCI-H2342; first compound 4 µM): 0.299
- relative viability (LOU-NH91; first compound 0.04 µM): 0.549
- relative viability (LOU-NH91; first compound 0.1265 µM): 0.463
- relative viability (LOU-NH91; first compound 0.4 µM): 0.324
- relative viability (LOU-NH91; first compound 1.265 µM): 0.326
- relative viability (LOU-NH91; first compound 4 µM): 0.354
- relative viability (PC-3 [JPC-3]; first compound 0.04 µM): 0.998
- relative viability (PC-3 [JPC-3]; first compound 0.1265 µM): 1.02
- relative viability (PC-3 [JPC-3]; first compound 0.4 µM): 1.16
- relative viability (PC-3 [JPC-3]; first compound 1.265 µM): 0.96
- relative viability (PC-3 [JPC-3]; first compound 4 µM): 0.578
- relative viability (LCLC-97TM1; first compound 0.04 µM): 0.896
- relative viability (LCLC-97TM1; first compound 0.1265 µM): 0.906
- relative viability (LCLC-97TM1; first compound 0.4 µM): 0.645
- relative viability (LCLC-97TM1; first compound 1.265 µM): 0.694
- relative viability (LCLC-97TM1; first compound 4 µM): 0.352
- relative viability (NCI-H2087; first compound 0.04 µM): 0.781
- relative viability (NCI-H2087; first compound 0.1265 µM): 0.774
- relative viability (NCI-H2087; first compound 0.4 µM): 0.466
- relative viability (NCI-H2087; first compound 1.265 µM): 0.414
- relative viability (NCI-H2087; first compound 4 µM): 0.324
- relative viability (EKVX; first compound 0.04 µM): 0.517
- relative viability (EKVX; first compound 0.4 µM): 0.473
- relative viability (EKVX; first compound 1.265 µM): 0.45
- relative viability (EKVX; first compound 4 µM): 0.417
- relative viability (NCI-H1666; first compound 0.04 µM): 0.791
- relative viability (NCI-H1666; first compound 0.1265 µM): 0.593
- relative viability (NCI-H1666; first compound 0.4 µM): 0.587
- relative viability (NCI-H1666; first compound 1.265 µM): 0.554
- relative viability (NCI-H1666; first compound 4 µM): 0.504
- relative viability (201T; first compound 0.04 µM): 0.606
- relative viability (201T; first compound 0.1265 µM): 0.428
- relative viability (201T; first compound 0.4 µM): 0.508
- relative viability (201T; first compound 1.265 µM): 0.491
- relative viability (201T; first compound 4 µM): 0.372
- relative viability (NCI-H650; first compound 0.04 µM): 0.462
- relative viability (NCI-H650; first compound 0.1265 µM): 0.301
- relative viability (NCI-H650; first compound 0.4 µM): 0.328
- relative viability (NCI-H650; first compound 1.265 µM): 0.277
- relative viability (NCI-H650; first compound 4 µM): 0.244
- relative viability (SW 1573; first compound 0.04 µM): 0.486
- relative viability (SW 1573; first compound 0.1265 µM): 0.447
- relative viability (SW 1573; first compound 0.4 µM): 0.31
- relative viability (SW 1573; first compound 1.265 µM): 0.218
- relative viability (SW 1573; first compound 4 µM): 0.23
